The values that follow come from patent US10233191B2, “Fused piperidine amides as modulators of ion channels” (Vertex Pharmaceuticals Incorporated, priority 2013, dated 2019).

For the assay, the target named is T1, NaV 1.7 (Homo sapiens, UniProt Q15858).
T1 construct: expressed in transfected cells; host or cells: HEK cells
T1 sequence (Q15858 whole entry): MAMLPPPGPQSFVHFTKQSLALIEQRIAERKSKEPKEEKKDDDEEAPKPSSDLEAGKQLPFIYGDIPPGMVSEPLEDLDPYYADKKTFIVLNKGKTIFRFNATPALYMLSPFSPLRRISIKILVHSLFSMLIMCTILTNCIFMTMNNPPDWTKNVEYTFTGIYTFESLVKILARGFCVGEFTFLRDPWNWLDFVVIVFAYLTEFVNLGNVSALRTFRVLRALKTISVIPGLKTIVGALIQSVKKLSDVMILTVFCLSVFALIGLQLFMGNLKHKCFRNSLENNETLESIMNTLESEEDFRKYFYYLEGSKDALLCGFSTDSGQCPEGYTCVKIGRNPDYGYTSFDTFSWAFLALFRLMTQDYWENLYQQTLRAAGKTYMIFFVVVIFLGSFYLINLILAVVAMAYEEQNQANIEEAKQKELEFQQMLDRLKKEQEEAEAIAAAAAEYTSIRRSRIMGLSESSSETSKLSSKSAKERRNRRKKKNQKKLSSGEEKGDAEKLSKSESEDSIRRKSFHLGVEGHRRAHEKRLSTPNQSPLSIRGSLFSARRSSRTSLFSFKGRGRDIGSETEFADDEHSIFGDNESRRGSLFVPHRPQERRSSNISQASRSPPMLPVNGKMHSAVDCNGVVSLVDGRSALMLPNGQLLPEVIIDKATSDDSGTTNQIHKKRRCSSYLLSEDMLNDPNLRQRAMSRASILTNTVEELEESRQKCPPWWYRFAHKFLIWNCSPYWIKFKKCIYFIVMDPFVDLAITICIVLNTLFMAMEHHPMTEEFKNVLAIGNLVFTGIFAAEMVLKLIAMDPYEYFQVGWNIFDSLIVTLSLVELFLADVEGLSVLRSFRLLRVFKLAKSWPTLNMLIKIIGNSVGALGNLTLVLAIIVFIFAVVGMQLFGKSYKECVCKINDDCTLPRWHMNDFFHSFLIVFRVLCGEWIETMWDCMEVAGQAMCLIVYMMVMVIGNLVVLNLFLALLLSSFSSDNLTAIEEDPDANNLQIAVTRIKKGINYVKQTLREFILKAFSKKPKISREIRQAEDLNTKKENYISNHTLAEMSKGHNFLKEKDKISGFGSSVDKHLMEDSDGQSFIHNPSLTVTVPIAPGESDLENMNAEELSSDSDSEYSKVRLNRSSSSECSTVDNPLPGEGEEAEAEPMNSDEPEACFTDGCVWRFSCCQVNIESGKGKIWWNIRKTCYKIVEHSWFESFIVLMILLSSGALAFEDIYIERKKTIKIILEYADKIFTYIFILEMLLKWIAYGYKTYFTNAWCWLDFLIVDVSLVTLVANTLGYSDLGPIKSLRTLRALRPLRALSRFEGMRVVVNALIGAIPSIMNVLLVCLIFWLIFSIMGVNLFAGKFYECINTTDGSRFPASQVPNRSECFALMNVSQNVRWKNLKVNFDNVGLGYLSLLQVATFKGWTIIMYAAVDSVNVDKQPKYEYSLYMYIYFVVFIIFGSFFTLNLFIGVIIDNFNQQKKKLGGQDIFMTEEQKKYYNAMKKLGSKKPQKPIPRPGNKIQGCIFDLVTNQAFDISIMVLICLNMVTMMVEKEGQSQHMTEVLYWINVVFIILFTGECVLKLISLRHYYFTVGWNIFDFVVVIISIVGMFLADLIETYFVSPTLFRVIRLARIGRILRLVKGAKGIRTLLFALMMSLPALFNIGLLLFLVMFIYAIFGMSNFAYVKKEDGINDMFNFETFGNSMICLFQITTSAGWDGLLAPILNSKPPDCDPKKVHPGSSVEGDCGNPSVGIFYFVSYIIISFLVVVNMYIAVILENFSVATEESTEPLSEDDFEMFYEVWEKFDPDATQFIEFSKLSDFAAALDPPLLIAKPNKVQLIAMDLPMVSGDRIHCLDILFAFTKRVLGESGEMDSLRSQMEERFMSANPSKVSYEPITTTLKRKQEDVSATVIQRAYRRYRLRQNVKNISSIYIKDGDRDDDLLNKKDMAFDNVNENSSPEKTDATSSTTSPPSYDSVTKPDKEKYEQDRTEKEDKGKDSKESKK
The assay is described as follows: E-VIPR optical membrane potential assay with electrical stimulation. In kind it is cell-based. The following applies: active against one or more sodium channels; assay/subtype not specified in Table 4; read-out: IC50 Binned Activity Data. In short, it runs like this:
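HEK cells expressing human NaV1.7, loaded with CC2-DMPE/DiSBAC6(3) FRET dyes, then exposed to compounds for 20-35 min at room temperature (0.625% DMSO). Electrical stimulation applied for 9 s with 400 Hz scanning. Read-out is the background-subtracted 460/580 nm emission ratio, normalized.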
As a reminder, the IC50 is the concentration that gives 50% inhibition. Take `COc1nc(C(=O)N2CC[C@@]3(c4cccc(F)c4)OCOC3C2)ccc1OCC1(C(F)(F)F)CC1` (stereo partly drawn) [Compound 213]: the IC50 is at most 2000 nM.

With `COc1cc(C(=O)N2CC[C@@]3(c4cccc(F)c4)OCOC3C2)ccc1OCCOC(F)(F)F` (stereo partly drawn) [Compound 214], the IC50 was at most 2000 nM.

`COc1cc(C(=O)N2CC[C@@]3(c4cccc(F)c4)OCOC3C2)ccc1OCC1CC(F)(F)C1` (stereo partly drawn) [Compound 215]: the IC50 was at most 2000 nM.

Consider `O=C(c1ccc(OCCOC(F)(F)F)c(Cl)c1)N1CC[C@@]2(c3cccc(F)c3)OCOC2C1` (stereo partly drawn) [Compound 216], for which the IC50 is at most 2000 nM.

In the case of `CC(C)(F)COc1ccc(C(=O)N2CC[C@@]3(c4cccc(F)c4)OCOC3C2)cc1Cl` (stereo partly drawn) [Compound 217], the IC50 was in the range of 2000 to 5000 nM.

As to `O=C(c1ccc(OCCC(F)(F)F)c(C(F)(F)F)c1)N1CC[C@@]2(c3cccc(F)c3)OCOC2C1` (stereo partly drawn) [Compound 218], the half-maximal inhibitory concentration (IC50) is at most 2000 nM.

For the molecule `CC(C)(F)COc1ccc(C(=O)N2CC[C@@]3(c4cccc(F)c4)OCOC3C2)cc1C(F)(F)F` (stereo partly drawn) [Compound 219], the IC50 is above 5000 nM.

For the molecule `O=C(c1ccc(OCCOC(F)(F)F)c(F)c1)N1CC[C@@]2(c3cccc(F)c3)OCOC2C1` (stereo partly drawn) [Compound 220], the half-inhibitory concentration (IC50) fell in the range of 2000 to 5000 nM.

For the molecule `COc1cc(Cl)nc([C@]23CCN(C(=O)c4ccc(OCCOC(F)(F)F)c(OC)c4)CC2OCO3)c1` (stereo partly drawn) [Compound 221], the IC50 is at most 2000 nM.

Take `COc1cc(C(=O)N2CC[C@]3(c4cc(C(F)(F)F)ccn4)OCOC3C2)ccc1OCCC1CC1(F)F` (stereo partly drawn) [Compound 222]: the IC50 is at most 2000 nM.

With `COc1nc(C(=O)N2CC[C@]3(c4cccc(F)c4)OCOC3C2)ccc1OCC1CC2(C1)CC(F)(F)C2` (stereo partly drawn) [Compound 223], the IC50 is at most 2000 nM.

Turning to `COc1nc(C(=O)N2CC[C@]3(c4cccc(F)c4)OCOC3C2)ccc1OC(C)C1CC(F)(F)C1` (stereo partly drawn) [Compound 224], the IC50 was at most 2000 nM.

For the molecule `COc1cc(C(=O)N2CC[C@]3(c4cc(F)cc(F)c4)OCOC3C2)ccc1OCC1CC(F)(F)C1` (stereo partly drawn) [Compound 225], the IC50 is at most 2000 nM.

Turning to `COc1cc(C(=O)N2CC[C@]3(c4cc(C(F)(F)F)ccn4)OCOC3C2)ccc1OCC1CC(F)(F)C1` (stereo partly drawn) [Compound 226], the IC50 was at most 2000 nM.

Turning to `COc1nc(C(=O)N2CC[C@]3(c4cccc(F)c4)OCOC3C2)ccc1OCC(F)(F)C1CC1` (stereo partly drawn) [Compound 227], the 50% inhibitory concentration (IC50) was at most 2000 nM.

Regarding `COc1cc(C(=O)N2CC[C@]3(c4cccc(F)c4)OCOC3C2)ccc1OCCOC(F)(F)F` (stereo partly drawn) [Compound 228], the IC50 is at most 2000 nM.

Take `COc1nc(C(=O)N2CC[C@]3(c4cccc(F)c4)OCOC3C2)ccc1O[C@H]1CC2[C@H](C1)C2(F)F` (stereo partly drawn) [Compound 229]: the IC50 was at most 2000 nM.

On to `COc1nc(C(=O)N2CC[C@]3(c4cccc(F)c4)OCOC3C2)ccc1O[C@@H]1CC2[C@H](C1)C2(F)F` (stereo partly drawn) [Compound 230], for which the IC50 was at most 2000 nM.

For the molecule `COc1nc(C(=O)N2CC[C@]3(c4cccc(F)c4)OCOC3C2)ccc1OC1CC=CC1` (stereo partly drawn) [Compound 231], the IC50 was at most 2000 nM.

As to `COc1nc(C(=O)N2CC[C@]3(c4cccc(F)c4)OCOC3C2)ccc1OCC1CC=CC1` (stereo partly drawn) [Compound 232], the IC50 is at most 2000 nM.

For `COc1nc(C(=O)N2CC[C@]3(c4cccc(F)c4)OCOC3C2)ccc1OC1CC(F)(F)C1` (stereo partly drawn) [Compound 233], the IC50 was at most 2000 nM.

Take `COc1nc(C(=O)N2CC[C@]3(c4cccc(F)c4)OCOC3C2)ccc1OC(C)C(F)(F)C(F)F` (stereo partly drawn) [Compound 234]: the IC50 was at most 2000 nM.

`COc1nc(C(=O)N2CC[C@]3(c4cccc(F)c4)OCOC3C2)ccc1OCC1CCC(F)(F)C1` (stereo partly drawn) [Compound 235]: the 50% inhibitory concentration (IC50) was at most 2000 nM.

With `COc1nc(C(=O)N2CC[C@]3(c4cccc(F)c4)OCOC3C2)ccc1OCC1CC2C(C1)C2(F)F` (stereo partly drawn) [Compound 236], the IC50 was at most 2000 nM.

Take `COc1nc(C(=O)N2CC[C@]3(c4cccc(F)c4)OCOC3C2)ccc1OCC1CC2C(C1)C2(F)F` (stereo partly drawn) [Compound 237]: the IC50 is at most 2000 nM.

Turning to `O=C(c1ccc(OCCOC(F)(F)F)c(Cl)c1)N1CCC2(c3ccccn3)CC2C1` (stereo not drawn) [Compound 238], the IC50 was at most 2000 nM.

On to `COc1cc(C(=O)N2CC[C@]3(c4cccc(F)c4)OCOC3C2)ccc1OC(C)C(F)(F)C(F)F` (stereo partly drawn) [Compound 239], for which the IC50 is at most 2000 nM.

Consider `COc1cc(C(=O)N2CC[C@]3(c4cccc(F)c4)OCOC3C2)ccc1OCC1CC(F)C1` (stereo partly drawn) [Compound 240], for which the IC50 is at most 2000 nM.

Regarding `COc1cc(C(=O)N2CC[C@]3(c4cccc(F)c4)OCOC3C2)ccc1OCC1CCC1` (stereo partly drawn) [Compound 241], the 50% inhibitory concentration (IC50) was 2000 to 5000 nM.

Take `COc1cc(C(=O)N2CC[C@]3(c4cccc(Cl)c4)OCOC3C2)ccc1O[C@H](C)C(F)(F)F` (stereo partly drawn) [Compound 243]: the IC50 was at most 2000 nM.

For the molecule `COc1cc(C(=O)N2CC[C@]3(c4cccc(Cl)c4)OCOC3C2)ccc1O[C@@H](C)C(F)(F)F` (stereo partly drawn) [Compound 244], the half-inhibitory concentration (IC50) is at most 2000 nM.

`COc1ccnc([C@]23CCN(C(=O)c4ccc(OCCOC(F)(F)F)c(Cl)c4)CC2OCO3)c1` (stereo partly drawn) [Compound 245]: the IC50 is at most 2000 nM.

On to `COc1ccnc([C@]23CCN(C(=O)c4ccc(OCC5CC(F)(F)C5)c(OC)n4)CC2OCO3)c1` (stereo partly drawn) [Compound 246], for which the IC50 is at most 2000 nM.

As to `O=C(c1ccc(OCCOC(F)(F)F)c(Cl)c1)N1CC[C@@]2(c3ccccn3)C(C1)C2(F)F` (stereo partly drawn) [Compound 247], the IC50 is at most 2000 nM.

For `O=C(c1ccc(OCCOC(F)(F)F)c(Cl)c1)N1CC[C@]2(c3cc(C(F)(F)F)ccn3)OCOC2C1` (stereo partly drawn) [Compound 248], the IC50 is at most 2000 nM.

With `CCOc1nc(C(=O)N2CC[C@]3(c4cccc(F)c4)OCOC3C2)ccc1OCCOC(F)(F)F` (stereo partly drawn) [Compound 249], the IC50 was at most 2000 nM.

Consider `COc1nc(C(=O)N2CC[C@]3(c4cc(C(F)(F)F)ccn4)OCOC3C2)ccc1OCC1CC(F)(F)C1` (stereo partly drawn) [Compound 250], for which the IC50 was at most 2000 nM.

Take `COc1cc(C(=O)N2CC[C@]3(c4cc(C(F)(F)F)ccn4)OCOC3C2)ccc1OCCC(F)(F)F` (stereo partly drawn) [Compound 251]: the IC50 is at most 2000 nM.

In the case of `COc1cc(C(=O)N2CC[C@]3(c4cccc(F)c4)OCOC3C2)ccc1OCCC1CC1(F)F` (stereo partly drawn) [Compound 252], the IC50 is at most 2000 nM.

In the case of `O=C(c1ccc(OCCOC(F)(F)F)c(Cl)c1)N1CC[C@@]2(c3ccccn3)COC2C1` (stereo partly drawn) [Compound 253], the concentration for half-maximal inhibition (IC50) is at most 2000 nM.

Regarding `COc1nc(C(=O)N2CC[C@]3(c4cccc(F)c4)OCOC3C2)ccc1OCC1CC(F)(F)C1(F)F` (stereo partly drawn) [Compound 254], the IC50 is at most 2000 nM.

Take `O=C(c1ccc(OCCOC(F)(F)F)c(Cl)c1)N1CC[C@]2(c3cccc(F)c3)OCOC2C1` (stereo partly drawn) [Compound 255]: the IC50 was at most 2000 nM.

As to `Cc1cc(C(=O)N2CC[C@]3(c4cccc(F)c4)OCOC3C2)ccc1OCC(C)(C)F` (stereo partly drawn) [Compound 256], the IC50 is at most 2000 nM.

In the case of `COc1cc(C(=O)N2CC[C@]3(c4cccc(F)c4F)OCOC3C2)ccc1O[C@H](C)C(F)(F)F` (stereo partly drawn) [Compound 257], the half-maximal inhibitory concentration (IC50) is at most 2000 nM.

Consider `COc1cc(C(=O)N2CC[C@]3(c4cccc(F)c4F)OCOC3C2)ccc1O[C@@H](C)C(F)(F)F` (stereo partly drawn) [Compound 258], for which the IC50 was at most 2000 nM.

As for `COc1cc(C(=O)N2CCC3(c4ccccn4)C(C2)C3(F)F)ccc1OCC1CC(F)(F)C1` (stereo not drawn) [Compound 259], the IC50 is at most 2000 nM.

For `COc1cc(C(=O)N2CCC3(c4ccccn4)C(C2)C3(F)F)ccc1OCCOC(F)(F)F` (stereo not drawn) [Compound 260], the IC50 was at most 2000 nM.

For `O=C(c1ccc(S(=O)(=O)C(F)F)cc1)N1CC[C@]2(c3cccc(F)c3)OCOC2C1` (stereo partly drawn) [Compound 261], the IC50 was above 5000 nM.

For the molecule `COc1nc(C(=O)N2CC[C@]3(c4cccc(F)c4F)OCOC3C2)ccc1OCC(F)(F)C(F)F` (stereo partly drawn) [Compound 262], the IC50 was at most 2000 nM.

Turning to `COc1nc(C(=O)N2CC[C@]3(c4cccc(F)c4F)OCOC3C2)ccc1OC(C)C(F)(F)F` (stereo partly drawn) [Compound 263], the IC50 is at most 2000 nM.

Take `COc1nc(C(=O)N2CC[C@]3(c4cccc(F)c4)OCOC3C2)ccc1OC(C)C(F)(F)F` (stereo partly drawn) [Compound 264]: the IC50 is at most 2000 nM.

Take `COc1nc(C(=O)N2CC[C@]3(c4ccccc4)OCOC3C2)ccc1OCC1(C(F)(F)F)CC1` (stereo partly drawn) [Compound 265]: the IC50 was at most 2000 nM.

Take `COc1cc(C(=O)N2CC[C@@]3(c4ccccn4)CC3C2)ccc1OCCOC(F)(F)F` (stereo partly drawn) [Compound 266]: the IC50 was at most 2000 nM.

Consider `COc1nc(C(=O)N2CC[C@]3(c4cccc(C(F)(F)F)n4)OCOC3C2)ccc1OCC1CC(F)(F)C1` (stereo partly drawn) [Compound 267], for which the IC50 was at most 2000 nM.

For the molecule `COc1nc(C(=O)N2CC[C@]3(c4cccc(F)c4)OCOC3C2)ccc1OCC1(C(F)(F)F)CC1` (stereo partly drawn) [Compound 268], the IC50 was at most 2000 nM.

Take `[2H]C1([2H])OC2CN(C(=O)c3ccc(OCC4(C(F)(F)F)CC4)c(OC)n3)CC[C@]2(c2cc(F)cc(F)c2)O1` (stereo partly drawn) [Compound 269]: the half-inhibitory concentration (IC50) was at most 2000 nM.

With `COc1nc(C(=O)N2CC[C@]3(c4cccc(Cl)c4)OCOC3C2)ccc1OCC1(C(F)(F)F)CC1` (stereo partly drawn) [Compound 270], the 50% inhibitory concentration (IC50) is at most 2000 nM.

Consider `COc1nc(C(=O)N2CC[C@]3(c4cccc(F)c4F)OCOC3C2)ccc1OCC1(C(F)(F)F)CC1` (stereo partly drawn) [Compound 271], for which the IC50 was at most 2000 nM.

As for `COc1nc(C(=O)N2CC[C@]3(c4cccc(C(F)(F)F)n4)OCOC3C2)ccc1OCCOC(F)(F)F` (stereo partly drawn) [Compound 272], the IC50 is at most 2000 nM.

Regarding `COc1cc(C(=O)N2CC[C@]3(c4cccc(C(F)(F)F)n4)OCOC3C2)ccc1OC(C)C(F)(F)F` (stereo partly drawn) [Compound 273], the IC50 is at most 2000 nM.
